Assay [1] deals with phosphorylation of Akt at Ser473. As to the kind of experiment: Cell-based phospho-Akt Ser473 assay (HCT116 cell). As to conditions: HCT 116 human colon carcinoma cells, IGF-1 stimulated; average. The text has this:
Cell-Based Phospho-Akt Ser473 Assay (HCT116 Cell)
This assay determines the ability of a compound to inhibit the phosphorylation of […] in Akt using a MSD based sandwich immunoassay (Meso Scale Detection, Meso Scale Discovery (MSD), Gaithersburg, Md.). HCT 116 human colon carcinoma cell lines can be grown in McCoy's 5A growth medium (GIBCO, Carlsbad, Calif.) containing 10% FBS (GIBCO, Carlsbad, Calif.) and X1 Penicillin-streptomycin-glutamine (GIBCO, Carlsbad, Calif.). Prior to the assay, cells can be detached from the culture flask with trypsin, and re-suspended in complete media to give a final concentration of 1.6×10^5 cells per mL. Aliquots (100 μl) of the HCT116 cell suspension can be seeded into each well of a 96 well tissue culture plate to give a final density of 16,000 cells per well. Cells can then be incubated overnight at 37° C.
The following day the cells can be treated with serially diluted test compounds and incubated for 2 hours at 37° C. The culture media on the HCT 116 cells can be replaced with 189 μL McCoys media, supplemented with 0.1% BSA (ICN Biomedicals, Inc., Costa Mesa, Calif.). Compounds can be prepared as either 10 mM or 0.5 mM stock solutions in DMSO, and serially diluted 3 fold in a 10-point dose-response curve to give final concentrations that are 200-fold greater than the desired final test concentration. Aliquots (1 μL) of serially-diluted compounds can be transferred to 96 well tissue culture plates containing the HCT 116 cells. […] As a maximum response control, wells can contain 0.5% DMSO in place of compound. The plates can be mixed at 700 rpm for 2 min to ensure even distribution of the test compound and incubated for 2 hours at 37° C. Cells can then be stimulated with insulin-like growth factor 1 (Sigma, St Louis, Mo.) at final concentration of 100 ng/ml for 15 minutes at 37° C. The media can then be removed and the cells treated with 80 μL cell-lysis buffer (MSD) containing a cocktail of protease and phosphatase inhibitors for one hour at 4° C.
25 μL Cell lysate can then be transferred to pre-blocked MSD assay plates pre-coated with a capture antibody specific for Akt, and the plates can be incubated for 2 hours at room temperature. The cell lysates can then be removed and plates can then be washed four times with 200 μl per well of Tris wash buffer (500 mM Tris, PH 7.5, 1.5 M NaCl, 0.2% Tween-20). Subsequently cells can be incubated for 1 hour at room temperature with a 25 μL solution containing the detection antibody, anti-phospho Akt (Ser 473) labeled with an electrochemiluminescent compound (Meso Scale Discovery SULPHO-TAG™ label, MSD, Gaithersburg, Md.). The detection antibody can be removed and plates can then be washed four times with 200 μL per well of Tris wash buffer. An aliquot of 150 μL of diluted MSD read buffer can then be applied to each well, and the electrochemiluminescent signal can be measured using a MSD SECTOR™ plate reader (Meso Scale Discovery, Gaithersburg, Md.). This instrument measures the intensity of emitted light to determine a quantitative measure of phosphorylated Akt in each well. The dose-response data obtained with each compound can be analyzed and the IC50 inhibition of Akt phosphorylation at Ser473 can be calculated.
Activity data for the compounds tested in the PI3K cell based Akt assay is provided in Table 1 under the column heading HCT116 Cell.

The target of the next assay is T1, PI3Kβ (Homo sapiens, UniProt P42338).
T1 construct: Full length p110 subunits of PI3K α, β and δ, N-terminally labeled with polyHis tag; polyHis (N); made in house; host or cells: Sf9 insect cells (baculovirus)
T1 sequence (P42338 whole entry): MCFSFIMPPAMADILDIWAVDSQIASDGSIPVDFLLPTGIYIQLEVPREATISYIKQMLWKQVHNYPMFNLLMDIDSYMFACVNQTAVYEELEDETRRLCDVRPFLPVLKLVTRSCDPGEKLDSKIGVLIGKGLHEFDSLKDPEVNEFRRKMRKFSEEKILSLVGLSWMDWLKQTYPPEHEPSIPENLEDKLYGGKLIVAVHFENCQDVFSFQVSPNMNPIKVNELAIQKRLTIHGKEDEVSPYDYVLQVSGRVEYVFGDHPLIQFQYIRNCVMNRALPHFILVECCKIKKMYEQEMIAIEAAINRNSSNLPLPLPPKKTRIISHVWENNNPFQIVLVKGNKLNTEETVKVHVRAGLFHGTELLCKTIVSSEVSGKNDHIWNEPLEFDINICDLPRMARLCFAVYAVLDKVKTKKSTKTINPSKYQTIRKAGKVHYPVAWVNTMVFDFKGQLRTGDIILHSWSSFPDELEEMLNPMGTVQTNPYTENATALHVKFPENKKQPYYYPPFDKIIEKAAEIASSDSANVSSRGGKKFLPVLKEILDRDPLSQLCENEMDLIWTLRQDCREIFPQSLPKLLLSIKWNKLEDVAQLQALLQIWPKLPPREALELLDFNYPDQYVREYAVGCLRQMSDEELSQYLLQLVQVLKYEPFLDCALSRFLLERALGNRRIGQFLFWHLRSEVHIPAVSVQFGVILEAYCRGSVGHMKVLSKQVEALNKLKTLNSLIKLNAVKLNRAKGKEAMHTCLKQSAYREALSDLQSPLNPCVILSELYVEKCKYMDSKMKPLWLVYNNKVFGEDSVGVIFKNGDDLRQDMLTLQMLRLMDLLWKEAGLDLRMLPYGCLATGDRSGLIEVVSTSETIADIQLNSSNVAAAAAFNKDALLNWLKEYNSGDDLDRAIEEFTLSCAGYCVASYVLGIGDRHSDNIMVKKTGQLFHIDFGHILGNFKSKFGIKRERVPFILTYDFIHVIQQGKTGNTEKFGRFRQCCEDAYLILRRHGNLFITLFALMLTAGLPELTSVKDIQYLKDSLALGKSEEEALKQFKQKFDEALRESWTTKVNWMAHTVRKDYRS
T1 sequence (P27986 whole entry partner): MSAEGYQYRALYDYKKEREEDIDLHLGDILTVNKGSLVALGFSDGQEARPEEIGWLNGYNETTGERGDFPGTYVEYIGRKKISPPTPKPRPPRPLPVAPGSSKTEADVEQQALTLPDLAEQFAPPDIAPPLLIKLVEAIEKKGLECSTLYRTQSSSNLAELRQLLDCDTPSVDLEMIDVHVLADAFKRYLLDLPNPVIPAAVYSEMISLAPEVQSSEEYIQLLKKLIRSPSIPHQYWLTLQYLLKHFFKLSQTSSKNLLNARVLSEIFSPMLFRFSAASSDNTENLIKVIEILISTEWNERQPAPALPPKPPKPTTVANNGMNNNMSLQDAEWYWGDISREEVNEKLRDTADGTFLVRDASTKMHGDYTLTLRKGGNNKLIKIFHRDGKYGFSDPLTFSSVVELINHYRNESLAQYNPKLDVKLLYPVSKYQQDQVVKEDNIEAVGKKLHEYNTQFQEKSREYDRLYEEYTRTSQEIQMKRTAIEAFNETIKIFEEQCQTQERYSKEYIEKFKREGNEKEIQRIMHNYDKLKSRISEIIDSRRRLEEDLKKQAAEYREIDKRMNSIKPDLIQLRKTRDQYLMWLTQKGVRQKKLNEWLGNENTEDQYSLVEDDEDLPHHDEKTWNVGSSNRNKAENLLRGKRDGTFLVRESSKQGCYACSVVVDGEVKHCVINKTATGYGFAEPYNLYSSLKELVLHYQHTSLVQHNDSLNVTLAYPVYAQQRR
As to the kind of experiment: In vitro PI3 kinase enzyme assay (PI3K ATP loss), beta. It counts as biochemical. As to conditions: average if run more than once.

The target of another assay is T2, mTOR (Homo sapiens, UniProt P42345).
T2 construct: purchased Invitrogen (Carlsbad, Calif.)
T2 sequence (P42345 1360-2549 limits assumed): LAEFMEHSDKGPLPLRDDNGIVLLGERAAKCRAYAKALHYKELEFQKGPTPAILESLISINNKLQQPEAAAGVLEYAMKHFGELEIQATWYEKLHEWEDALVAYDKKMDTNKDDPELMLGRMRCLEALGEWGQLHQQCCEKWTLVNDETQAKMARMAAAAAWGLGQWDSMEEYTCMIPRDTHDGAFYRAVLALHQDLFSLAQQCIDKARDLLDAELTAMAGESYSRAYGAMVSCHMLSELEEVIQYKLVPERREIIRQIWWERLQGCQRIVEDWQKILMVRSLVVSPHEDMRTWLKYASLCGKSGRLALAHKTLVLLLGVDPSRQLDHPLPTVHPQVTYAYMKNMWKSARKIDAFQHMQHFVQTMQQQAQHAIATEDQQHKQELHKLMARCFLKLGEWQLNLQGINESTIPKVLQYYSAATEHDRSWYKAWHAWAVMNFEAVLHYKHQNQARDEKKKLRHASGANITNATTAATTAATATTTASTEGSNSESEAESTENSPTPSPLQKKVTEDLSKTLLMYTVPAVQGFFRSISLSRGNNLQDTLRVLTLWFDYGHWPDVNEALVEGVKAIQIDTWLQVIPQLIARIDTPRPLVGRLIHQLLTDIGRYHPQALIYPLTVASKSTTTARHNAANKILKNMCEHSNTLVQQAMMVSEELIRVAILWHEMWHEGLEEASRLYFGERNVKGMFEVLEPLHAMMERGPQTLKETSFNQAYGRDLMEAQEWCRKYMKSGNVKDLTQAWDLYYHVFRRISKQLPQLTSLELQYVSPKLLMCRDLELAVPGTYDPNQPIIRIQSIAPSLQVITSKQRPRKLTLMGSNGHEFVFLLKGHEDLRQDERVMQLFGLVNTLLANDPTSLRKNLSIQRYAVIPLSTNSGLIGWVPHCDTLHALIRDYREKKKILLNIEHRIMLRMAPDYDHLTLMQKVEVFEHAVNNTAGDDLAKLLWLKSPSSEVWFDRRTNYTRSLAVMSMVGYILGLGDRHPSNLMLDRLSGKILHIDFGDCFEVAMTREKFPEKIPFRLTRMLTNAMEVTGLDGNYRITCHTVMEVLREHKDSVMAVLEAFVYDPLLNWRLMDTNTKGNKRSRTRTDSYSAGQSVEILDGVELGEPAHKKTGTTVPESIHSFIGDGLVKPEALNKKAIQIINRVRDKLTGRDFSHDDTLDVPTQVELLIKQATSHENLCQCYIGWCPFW
As to the kind of experiment: In vitro mTOR assay (Lanthascreen). The following applies: average if run more than once. It counts as biochemical. The text has this: The Invitrogen (Carlsbad, Calif.) mammalian target of rapamycin (mTOR) Lanthascreen assay can be used to quantitate mTOR kinase activity in an in vitro setting. Active mTOR phosphorylates eukaryotic translation initiation factor 4E binding protein 1 (4E-BP1) on residue threonine 46. This phosphorylation event can be detected with a phospho-specific terbium (Tb) labeled Ab, in turn bringing the Tb label in close proximity to the GFP tagged 4E-BP1 and allowing for time-resolved fluorescence resonance energy transfer (TR-FRET), which correlates 4E-BP1 phosphorylation levels with mTOR kinase activity.
Enzyme reaction buffer can be prepared in deionized water containing 50 mM HEPES (pH 7.5), 0.01% Polysorbate 20, 1 mM EGTA, and 10 mM MnCl2.
Dilutions of the compound to be tested can be prepared in 96-well polypropylene plates (Fisher Scientific, Waltham, Mass.). One row represents a 10-point dose of compound diluted 1:3 in enzyme reaction buffer and 20% dimethyl sulfoxide (DMSO). The top concentration for all compounds is 36 μM. Wells 6 and 12 can serve as the no compound (DMSO only) and high compound controls.
An mTOR substrate solution can prepared in enzyme reaction buffer containing 1600 nM green fluorescent protein tagged eukaryotic translation initiation factor 4E binding protein 1 (GFP-4E-BP1) (Invitrogen, Carlsbad, Calif.) and 28 uM adenosine triphosphate (ATP) (Calbiochem, Gibbstown, N.J.).
mTOR enzyme (Invitrogen, Carlsbad, Calif.) can be diluted in enzyme reaction buffer to a working concentration of 100 ng/mL.
The enzyme assay can be run in 384 well low volume assay plates (Corning, Corning, N.Y.). 2.5 uL of substrate solution containing GFP-4E-BP1 and ATP can be added to appropriate wells in the assay plate followed by 2.5 μL of compound dilutions. 5 μL of appropriately diluted mTOR enzyme can be added and the reaction allowed to proceed for 1 hour at room temperature. Final reagent concentrations in the enzyme assay are 50 ng/mL mTOR, 400 nM GFP-4E-BP1, and 7 μM ATP.
The enzyme assay can be terminated upon the addition of 10 μL of 20 mM EDTA and 4 nM Tb-labeled anti-phospho-4E-BP1 [T46] antibody (Invitrogen, Carlsbad, Calif.). The assay plate can then be incubated at room temperature for 1 hour and results read on a Tecan Safire II plate reader (Tecan, Männedorf, Switzerland).
(In general: Time-resolved FRET reads energy transfer from a long-lived donor to a nearby acceptor.)

Experimental for PI3Kβ: Full length p110 subunits of PI3K α, β and δ, N-terminally labeled with polyHis tag, can be co-expressed with p85 with Baculo virus expression vectors in sf9 insect cells. P110/p85 heterodimers can be purified by sequential Ni-NTA, Q-HP, Superdex-100 chromatography. Purified α, β and δ isozymes can be stored at −20° C. in 20 mM Tris, pH 8, 0.2M NaCl, 50% glycerol, 5 mM DTT, 2 mM Na cholate. […] The γ isozyme can be purified by sequential Ni-NTA, Superdex-200, Q-HP chromatography. The γ isozyme can be stored frozen at −80° C. in NaH2PO4, pH 8, 0.2M NaCl, 1% ethylene glycol, 2 mM β-mercaptoethanol.
In Vitro PI3 Kinase Enzyme Assays (PI3K Atploss)
PI3K enzyme assays (alpha, beta, delta and gamma) can be performed in 25 μL with the above final concentrations of components in white polyproplyene plates. Phosphatidyl inositol phosphoacceptor, PtdIns(4,5)P2 (eg. P4508) can be obtained from Echelon Biosciences, Salt Lake City, Utah. […] Test compounds can be dissolved in DMSO and diluted with three-fold serial dilutions. The compound in DMSO (1 μL) may be added per test well, and the inhibition relative to reactions containing no compound, with and without enzyme can be determined After assay incubation at RT, the reaction can be stopped and residual ATP can be determined by addition of an equal volume of a commercial ATP bioluminescence kit (Perkin Elmer EasyLite, Perkin Elmer, Waltham, Mass.) according to the manufacturer's instructions, and detected using an Analyst GT luminometer.

Regarding `O=S(=O)(Nc1cc(-c2ccc3nccc(N4CCOCC4)c3c2)cnc1Cl)c1ccc(F)cc1` [Example 1, N-(2-chloro-5-(4-(4-morpholinyl)-6-quinolinyl)-3-pyridinyl)-4-fluorobenzenesulfonamide], in assay [1], the IC50 amounted to 0.0174 µM.

In the case of `O=S(=O)(Nc1cc(-c2ccc3nccc(Cl)c3c2)cnc1Cl)c1ccc(F)cc1` [Example 2, N-(2-chloro-5-(4-chloro-6-quinolinyl)-3-pyridinyl)-4-fluorobenzenesulfonamide], the IC50 at PI3Kβ was determined as 0.0093 µM; in assay [1], 0.109 µM.

With `O=S(=O)(Nc1cc(-c2ccc3nccnc3c2)cnc1Cl)c1ccc(F)cc1` [Example 6, N-(2-chloro-5-(6-quinoxalinyl)-3-pyridinyl)-4-fluorobenzenesulfonamide], the results for the IC50 (at PI3Kβ; in assay [1]) were 0.0254 µM and 1.59 µM, respectively.

As for `O=S(=O)(Nc1cc(-c2ccc3ncc(N4CCOCC4)nc3c2)cnc1Cl)c1ccc(F)cc1` [Example 20, N-(2-chloro-5-(3-(4-morpholinyl)-6-quinoxalinyl)-3-pyridinyl)-4-fluorobenzenesulfonamide], the IC50 in assay [1] came to 0.0062 µM.

Turning to `O=S(=O)(Nc1cc(-c2ccc3nccc(N4CCCCC4)c3c2)cnc1Cl)c1ccc(F)cc1` [Example 24, N-(2-chloro-5-(4-(1-piperidinyl)-6-quinolinyl)-3-pyridinyl)-4-fluorobenzenesulfonamid], the IC50 against PI3Kβ is 0.0184 µM; in assay [1], 0.159 µM.

Turning to `CC(C)N1CCN(c2ccnc3ccc(-c4cnc(Cl)c(NS(=O)(=O)c5ccc(F)cc5)c4)cc23)CC1` [Example 25, N-(2-chloro-5-(4-(4-(1-methylethyl)-1-piperazinyl)-6-quinolinyl)-3-pyridinyl)-4-fluorobenzenesulfonamide], the IC50 on PI3Kβ was found to be 0.0119 µM; in assay [1], 0.0189 µM.

With `COCCOc1ccnc2ccc(-c3cnc(Cl)c(NS(=O)(=O)c4ccc(F)cc4)c3)cc12` [Example 31, N-(2-chloro-5-(4-(2-methoxyethoxy)-6-quinolinyl)-3-pyridinyl)-4-fluorobenzenesulfonamide], the figures for the IC50 (against PI3Kβ; in assay [1]) were 0.0144 µM and 0.0252 µM, respectively.

Consider `COc1ncccc1-c1ccnc2ccc(-c3cnc(Cl)c(NS(=O)(=O)c4ccc(F)cc4)c3)cc12` [Example 35, N-(2-chloro-5-(4-(2-methoxy-3-pyridinyl)-6-quinolinyl)-3-pyridinyl)-4-fluorobenzenesulfonamide], for which the IC50 against PI3Kβ was found to be 0.0212 µM; in assay [1], 0.0548 µM.

Regarding `O=S(=O)(Nc1cc(-c2ccc3ncccc3n2)cnc1Cl)c1ccc(F)cc1` [Example 41, N-(2-chloro-5-(1,5-naphthyridin-2-yl)-3-pyridinyl)-4-fluorobenzenesulfonamide], the results for the IC50 (against PI3Kβ; in assay [1]) were 0.0597 µM and 0.629 µM, respectively.

Take `COCCN(C)c1cnc2ccc(-c3cnc(Cl)c(NS(=O)(=O)c4ccc(F)cc4)c3)cc2n1` [Example 55, N-(2-chloro-5-(3-((2-methoxyethyl)(methyl)amino)-6-quinoxalinyl)-3-pyridinyl)-4-fluorobenzenesulfonamide]: the concentration for half-maximal inhibition (IC50) was 0.0207 µM against PI3Kβ and 0.064 µM in assay [1].

Take `O=S(=O)(Nc1cc(-c2ccc3ncc(NCCN4CCCCC4)nc3c2)cnc1Cl)c1ccc(F)cc1` [Example 61, N-(2-chloro-5-(3-((2-(1-piperidinyl)ethyl)amino)-6-quinoxalinyl)-3-pyridinyl)-4-fluorobenzenesulfonamide]: the IC50 amounted to 0.0155 µM on PI3Kβ and 0.0515 µM in assay [1].

`O=S(=O)(Nc1cc(-c2ccc3ncc(N4C[C@H]5CC[C@H](CC5)C4)nc3c2)cnc1Cl)c1ccc(F)cc1` [Example 62, N-(5-(3-(3-azabicyclo[3.2.2]non-3-yl)-6-quinoxalinyl)-2-chloro-3-pyridinyl)-4-fluorobenzenesulfonamide]: the IC50 at PI3Kβ worked out at 0.343 µM; in assay [1], 0.263 µM.

As for `O=S(=O)(Nc1cc(-c2ccc3ncc(NCCc4ccccc4)nc3c2)cnc1Cl)c1ccc(F)cc1` [Example 64, N-(2-chloro-5-(3-((2-phenylethyl)amino)-6-quinoxalinyl)-3-pyridinyl)-4-fluorobenzenesulfonamide], the IC50 against PI3Kβ was 0.0597 µM; in assay [1], 0.188 µM.

Turning to `CN(Cc1ccccc1)c1cnc2ccc(-c3cnc(Cl)c(NS(=O)(=O)c4ccc(F)cc4)c3)cc2n1` [Example 65, N-(5-(3-(benzyl(methyl)amino)-6-quinoxalinyl)-2-chloro-3-pyridinyl)-4-fluorobenzenesulfonamide], the IC50 was 0.0303 µM against PI3Kβ and 0.279 µM in assay [1].

As to `COC1CCN(c2cnc3ccc(-c4cnc(Cl)c(NS(=O)(=O)c5ccc(F)cc5)c4)cc3n2)CC1` [Example 69, N-(2-chloro-5-(3-(4-methoxy-1-piperidinyl)-6-quinoxalinyl)-3-pyridinyl)-4-fluorobenzenesulfonamide], the IC50 came out at 0.0344 µM against PI3Kβ and 0.0526 µM in assay [1].

As for `O=S(=O)(Nc1cc(-c2ccc3ncc(NCC4CCCCC4)nc3c2)cnc1Cl)c1ccc(F)cc1` [Example 70, N-(2-chloro-5-(3-((cyclohexylmethyl)amino)-6-quinoxalinyl)-3-pyridinyl)-4-fluorobenzenesulfonamide], the IC50 against PI3Kβ was determined as 0.0532 µM; in assay [1], 0.151 µM.

Consider `COc1nc(-c2cnc(Cl)c(NS(=O)(=O)c3ccc(F)cc3)c2)cc2cccnc12` [Example 76, N-(2-Chloro-5-(8-methoxy-1,7-naphthyridin-6-yl)pyridin-3-yl)-4-fluorobenzenesulfonamide], for which the IC50 in assay [1] came out at 0.806 µM.

Molecule `CN(C)c1ccnc2ccc(-c3cnc(Cl)c(NS(=O)(=O)c4ccc(F)cc4)c3)cc12` [Example 97, N-(2-chloro-5-(4-(dimethylamino)-6-quinolinyl)-3-pyridinyl)-4-fluorobenzenesulfonamide] returned a concentration for half-maximal inhibition (IC50) on mTOR of 0.111 µM.

The molecule `COCCNc1ccnc2ccc(-c3cnc(Cl)c(NS(=O)(=O)c4ccc(F)cc4)c3)cc12` [Example 98, N-(2-chloro-5-(4-((2-methoxyethyl)amino)-6-quinolinyl)-3-pyridinyl)-4-fluorobenzenesulfonamide] had an IC50 at mTOR of 1.16 µM.

For orientation: IC50 means the midpoint of a concentration-inhibition curve. A high value points to weaker potency in that assay.

For the origin of these results see patent US8415376B2, “Inhibitors of PI3 kinase” (Amgen Inc., priority 2008, dated 2013).
